# Laboratory results from patent US8476264B2, “N-(3-(2-amino-6,6-difluoro-4,4A,5,6,7,7A-hexahydro-cyclopenta[E][1,3]oxazin-4-yl)-phenylamides as BACE1 inhibitors” (Hoffmann-La Roche Inc., priority 2011, dated 2013).
# Legend:
# [1] = target: T1, P-gp (P-glycoprotein, human MDR1) (Homo sapiens, UniProt P08183); experiment: P-gp (P-glycoprotein) assay, bidirectional transcellular transport in LLC-PK1 and L-MDR1 cells; assay type: in vitro ADME; conditions: ER = PappBA/PappAB, read-out: P-gp human, efflux ratio: substrate category
# T1 construct: host or cells: LLC-PK1 (porcine kidney epithelial) cells, L-MDR1
# Experimental: P-gp (P-glycoprotein) Assay Cell Lines Used for Transport Experiments
# The LLC-PK1 cell line (ATCC #CL-101) is a porcine kidney epithelial cell line. The MDR1 (Human multidrug resistance protein 1) transfected cell lines were obtained from Dr. A. Schinkel, The Netherlands Cancer Institute (Amsterdam, The Netherlands). All cell lines were cultured on permeable inserts (96-insert plates Millipore, 0.11 cm^2 area, pore size 0.4 μm) at 0.73*10^6 cells/ml. Transport measurements were performed at day 4 after seeding. Tightness of the cell monolayer was controlled via the permeability of the extracellular marker lucifer yellow (10 μM).
# In Vitro Transport Experiments
# Bidirectional transcellular transport using LLC-PK1 and L-MDR1 LLC-PK1 cells exogenously expressing the human MDR1)
# The experiments were performed on a TECAN automated liquid handling system. Briefly, medium was removed from all compartments and the medium of receiver side was replaced with culture medium. The trans-cellular transport measurements were initiated by adding the substrate together with extracellular marker lucifer yellow to the donor side. Inhibitors were added to both sides (1 μM elacridar). Transport experiments were performed both in the basolateral-to-apical and apical-to-basolateral directions with 3 wells each. The plates were incubated at 37° C. and 5% CO2 in a Liconic incubator. Samples were taken from the donor and the opposite (acceptor) side after 2 hours incubation. Concentrations of substrate in both compartments were determined by scintillation counting (digoxin) or by LC-MS/MS. The extracellular marker (lucifer yellow) was quantified using a spectrafluor plus reader at 430/535 nm (Ex/Em). In each experiment 3 different inserts were used for each condition and a mean was calculated.
# Bidirectional transcellular transport using LLC-PK1 and L-MDR1 cells
# For the transcellular transport, the following equation was used for data evaluation: […]
# Where Papp, A, C0, and dQ/dt represent the apparent permeability, the filter surface area, the initial concentration, and the amount transported per time period, respectively.
# Transport efflux ratios (ER) were calculated as follows: […]
# Where PappBA is the permeability value in the basolateral-to-apical direction, and PappAB the permeability value in the apical-to-basolateral direction. Papp were not corrected for flux of the extracellular marker lucifer yellow, which was used to assess the quality of the cell monolayers.
# [2] = Detection of glutathione conjugates; assay type: in vitro ADME, human; set-up: key: NF: in vitro no significant adduct formation relative to control; conditions: in vitro, relative to control
# Excerpt: Detection of Glutathione Conjugates
# The assay conditions for the detection of glutathione conjugates follow the procedure described by C. M. Dieckhaus et al.
# in vivo effect = conditions: % of control @ 30 mg/kg p.o.
# CYP3A4 = target: T2, CYP3A4 (Homo sapiens, UniProt P08684); experiment: CYP inhibition assay, CYP3A4; assay type: in vitro ADME; conditions: human liver microsomes, midazolam 1' hydroxylase; read-out: CYP IC50 3A4
# T2 construct: 0.2 mg/ml pooled human liver microsomes; from tissue; host or cells: pooled human liver microsomes
# Experimental: (§1) Inhibition of cytochromes P450 (CYPs) 2C9, 2D6 and 3A4 was assessed using human liver microsomes and CYP-selective substrate metabolism reactions. 50 μl incubations were made up containing (finally) 0.2 mg/ml pooled human liver microsomes, 5 μM substrate (diclofenac for CYP2C9 [4′ hydroxylase], dextromethorphan for CYP2D6 [O-demethylase] or midazolam for CYP3A4 [1′ hydroxylase]), 0.25 μL DMSO containing test inhibitor and NADPH regenerating system. Test inhibitor concentrations of 50, 16.7, 5.6, 1.9, 0.6 and 0.2 μM were assessed in singlicate. Incubations were pre-warmed to 37° C. for 10 minutes before initiation by addition of NADPH regenerating system. Incubations were quenched after 5 minutes (20 minutes for dextromethorphan) by addition of 50 μl cold acetonitrile containing 20 ng/ml 4-OH-diclofenac-13C6, 20 ng/mL dextrorphan-D3 and 20 ng/mL 1-OH-midazolam-D4. Quenched incubates were stored at −20° C. for at least 1 hour before centrifugation (20,000×g, 20 minutes). Supernatants were removed and diluted 1:1 with water prior to analysis using a RapidFire sample injector system and API4000 mass spectrometer. Peak areas for substrate, metabolite and stable-labelled metabolite standard were determined using MS/MS. The peak area ratios between the metabolite generated by the enzymatic reaction and the internal standard were used in subsequent calculations. The percentage of (DMSO) control activity was calculated for each incubate and IC50 values estimated by non-linear regression. Sulfaphenazole, quinidine or ketoconazole were tested in each CYP2C9, CYP2D6 or CYP3A4 inhibition experiment, respectively, to ensure assay sensitivity and reproducibility. (Validated assays for human cytochrome P450 activities, R. L. Walsky and R. S. Obach, Drug Metabolism and Disposition 32: 647-660, 2004. and S. Fowler and H. Zhang, The AAPS Journal, Vol. 10, No. 2, 410-424, 2008.)
# CYP2D6 = target: T3, CYP2D6 (Homo sapiens, UniProt P10635); experiment: CYP inhibition assay, CYP2D6; assay type: in vitro ADME; conditions: human liver microsomes, dextromethorphan O-demethylase; read-out: CYP IC50 2D6
# T3 construct: 0.2 mg/ml pooled human liver microsomes; from tissue; host or cells: pooled human liver microsomes
# Experimental: as §1
# CYP2C9 = target: T4, CYP2C9 (Homo sapiens, UniProt P11712); experiment: CYP inhibition assay, CYP2C9; assay type: in vitro ADME; conditions: human liver microsomes, diclofenac 4' hydroxylase; read-out: CYP IC50 2C9
# T4 construct: 0.2 mg/ml pooled human liver microsomes; from tissue; host or cells: pooled human liver microsomes
# Experimental: as §1
# T3 sequence (P10635 whole entry): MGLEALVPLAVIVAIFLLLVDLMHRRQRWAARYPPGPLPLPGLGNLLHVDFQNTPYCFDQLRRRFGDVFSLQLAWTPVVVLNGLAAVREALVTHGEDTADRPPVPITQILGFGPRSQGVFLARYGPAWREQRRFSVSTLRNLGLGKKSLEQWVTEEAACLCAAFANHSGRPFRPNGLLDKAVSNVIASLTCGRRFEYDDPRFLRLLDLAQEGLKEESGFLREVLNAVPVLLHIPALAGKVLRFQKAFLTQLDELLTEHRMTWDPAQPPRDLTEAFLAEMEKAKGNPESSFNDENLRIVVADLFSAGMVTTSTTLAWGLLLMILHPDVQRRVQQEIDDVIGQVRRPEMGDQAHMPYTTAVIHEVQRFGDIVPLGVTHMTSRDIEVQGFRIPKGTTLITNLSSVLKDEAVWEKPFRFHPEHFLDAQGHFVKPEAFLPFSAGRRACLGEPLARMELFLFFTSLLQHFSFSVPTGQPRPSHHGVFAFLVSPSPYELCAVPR
# T1 sequence (P08183 whole entry): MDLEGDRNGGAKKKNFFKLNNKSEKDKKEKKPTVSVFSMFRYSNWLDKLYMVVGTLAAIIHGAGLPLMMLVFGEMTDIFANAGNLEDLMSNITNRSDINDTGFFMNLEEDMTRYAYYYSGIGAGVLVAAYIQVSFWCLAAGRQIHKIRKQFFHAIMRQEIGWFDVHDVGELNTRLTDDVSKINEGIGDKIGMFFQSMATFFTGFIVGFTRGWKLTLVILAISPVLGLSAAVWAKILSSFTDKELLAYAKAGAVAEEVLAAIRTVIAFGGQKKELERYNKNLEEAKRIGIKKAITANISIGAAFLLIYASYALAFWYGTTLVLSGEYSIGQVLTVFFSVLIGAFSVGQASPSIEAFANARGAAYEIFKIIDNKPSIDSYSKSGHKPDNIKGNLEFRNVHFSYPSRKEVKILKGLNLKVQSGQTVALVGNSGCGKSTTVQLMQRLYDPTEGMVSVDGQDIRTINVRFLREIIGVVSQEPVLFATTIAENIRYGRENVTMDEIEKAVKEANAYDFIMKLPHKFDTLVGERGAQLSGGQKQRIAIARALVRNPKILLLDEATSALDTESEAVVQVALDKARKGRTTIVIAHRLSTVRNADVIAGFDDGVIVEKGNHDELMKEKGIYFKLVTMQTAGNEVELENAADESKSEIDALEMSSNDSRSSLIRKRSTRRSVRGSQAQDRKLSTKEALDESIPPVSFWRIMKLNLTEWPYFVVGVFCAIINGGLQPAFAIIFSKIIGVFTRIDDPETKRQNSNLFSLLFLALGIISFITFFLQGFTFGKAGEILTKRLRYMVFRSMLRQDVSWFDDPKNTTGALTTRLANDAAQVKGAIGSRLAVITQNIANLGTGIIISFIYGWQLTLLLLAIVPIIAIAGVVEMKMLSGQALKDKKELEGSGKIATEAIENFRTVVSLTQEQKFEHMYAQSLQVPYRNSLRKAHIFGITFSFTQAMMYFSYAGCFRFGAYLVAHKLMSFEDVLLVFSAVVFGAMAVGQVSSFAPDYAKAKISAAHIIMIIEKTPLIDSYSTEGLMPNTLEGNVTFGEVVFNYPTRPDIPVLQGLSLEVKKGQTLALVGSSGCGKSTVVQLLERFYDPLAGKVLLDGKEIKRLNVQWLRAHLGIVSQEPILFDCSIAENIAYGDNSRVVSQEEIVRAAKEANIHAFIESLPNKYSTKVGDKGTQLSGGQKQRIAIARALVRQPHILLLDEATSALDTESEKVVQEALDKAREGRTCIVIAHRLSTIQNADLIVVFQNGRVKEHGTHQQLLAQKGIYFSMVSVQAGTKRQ
# T2 sequence (P08684 whole entry): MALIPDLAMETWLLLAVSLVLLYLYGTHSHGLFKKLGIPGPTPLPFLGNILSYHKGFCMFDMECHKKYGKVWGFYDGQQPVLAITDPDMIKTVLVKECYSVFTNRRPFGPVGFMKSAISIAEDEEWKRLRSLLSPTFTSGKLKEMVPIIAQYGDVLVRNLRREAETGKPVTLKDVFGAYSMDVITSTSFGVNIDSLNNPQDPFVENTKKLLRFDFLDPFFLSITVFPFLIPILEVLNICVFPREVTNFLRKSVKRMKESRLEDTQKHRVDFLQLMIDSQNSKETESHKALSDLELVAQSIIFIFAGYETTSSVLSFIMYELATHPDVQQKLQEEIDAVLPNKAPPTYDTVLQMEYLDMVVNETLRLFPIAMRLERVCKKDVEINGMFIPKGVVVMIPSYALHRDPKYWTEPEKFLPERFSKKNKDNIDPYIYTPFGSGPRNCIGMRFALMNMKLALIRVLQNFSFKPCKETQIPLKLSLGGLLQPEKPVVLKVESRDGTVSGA
# T4 sequence (P11712 whole entry): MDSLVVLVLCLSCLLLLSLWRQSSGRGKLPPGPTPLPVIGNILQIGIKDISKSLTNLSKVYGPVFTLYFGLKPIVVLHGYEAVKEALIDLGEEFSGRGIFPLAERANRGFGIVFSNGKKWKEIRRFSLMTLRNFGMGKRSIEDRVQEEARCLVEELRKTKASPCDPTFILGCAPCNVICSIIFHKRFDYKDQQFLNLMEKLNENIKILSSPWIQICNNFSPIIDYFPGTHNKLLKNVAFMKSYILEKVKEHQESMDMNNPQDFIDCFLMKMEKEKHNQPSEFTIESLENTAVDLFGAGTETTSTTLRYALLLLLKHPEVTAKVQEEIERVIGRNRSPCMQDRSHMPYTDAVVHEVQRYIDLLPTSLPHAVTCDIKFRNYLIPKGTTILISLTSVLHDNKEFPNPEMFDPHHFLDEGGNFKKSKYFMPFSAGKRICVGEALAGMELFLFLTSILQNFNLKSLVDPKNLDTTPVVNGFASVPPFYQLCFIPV
SMILES,efflux ratio at 2 h [1],GSH human (glutathione adduct formation) [2],in vivo effect (in vivo effect),IC50 (CYP3A4) [µM],IC50 (CYP2D6) [µM],IC50 (CYP2C9) [µM]
"N#Cc1ccc(C(=O)Nc2ccc(F)c([C@@]3(CF)N=C(N)O[C@@H]4CC(F)(F)C[C@@H]43)c2)nc1 [Example 3, 5-Cyano-pyridine-2-carboxylic acid [(S)-3-((1R,2R)-2-amino-6,6-difluoro-4-fluoromethyl-4,4a,5,6,7,7a-hexahydro-cyclopenta[e][1,3]oxazin-4-yl)-4-fluoro-phenyl]-amide]",< 3,NF,A (less than 50% of control @ 30 mg/kg p.o.),> 10,> 10,> 10
"NC1=N[C@](CF)(c2cc(NC(=O)c3cnc(C(F)F)cn3)ccc2F)[C@H]2CC(F)(F)C[C@H]2O1 [Example 24, 5-Difluoromethyl-pyrazine-2-carboxylic acid [(S)-3-((1R,2R)-2-amino-6,6-difluoro-4-fluoromethyl-4,4a,5,6,7,7a-hexahydro-cyclopenta[e][1,3]oxazin-4-yl)-4-fluoro-phenyl]-amide]",< 3,NF,A (less than 50% of control @ 30 mg/kg p.o.),> 10,> 10,> 10
"NC1=N[C@](CF)(c2cc(NC(=O)c3ccc(F)cn3)ccc2F)[C@H]2CC(F)(F)C[C@H]2O1 [Example 7, 5-Fluoro-pyridine-2-carboxylic acid [(S)-3-((1R,2R)-2-amino-6,6-difluoro-4-fluoromethyl-4,4a,5,6,7,7a-hexahydro-cyclopenta[e][1,3]oxazin-4-yl)-4-fluoro-phenyl]-amide]",< 3,NF,A (less than 50% of control @ 30 mg/kg p.o.),> 10,> 10,> 10
"COc1cnc(C(=O)Nc2ccc(F)c([C@@]3(C(F)F)N=C(N)O[C@@H]4CC(F)(F)C[C@@H]43)c2)cn1 [Example 42, 5-Methoxy-pyrazine-2-carboxylic acid [(S)-3-((1R,2R)-2-amino-4-difluoromethyl-6,6-difluoro-4,4a,5,6,7,7a-hexahydro-cyclopenta[e][1,3]oxazin-4-yl)-4-fluoro-phenyl]-amide]",< 3,NF,A (less than 50% of control @ 30 mg/kg p.o.),> 10,> 10,> 10
"N#Cc1ccc(C(=O)Nc2ccc(F)c([C@@]3(C(F)F)N=C(N)O[C@@H]4CC(F)(F)C[C@@H]43)c2)nc1 [Example 36, 5-Cyano-pyridine-2-carboxylic acid [(S)-3-((1R,2R)-2-amino-4-difluoromethyl-6,6-difluoro-4,4a,5,6,7,7a-hexahydro-cyclopenta[e][1,3]oxazin-4-yl)-4-fluoro-phenyl]-amide]",< 3,NF,A (less than 50% of control @ 30 mg/kg p.o.),> 10,> 10,> 10
